Columns and labels:
[1] = target: GDP-bound NRAS wild-type protein (Homo sapiens, UniProt P01111); experiment: Binding to NRAS by surface plasmon resonance (SPR), Single Cycle Kinetics; conditions: KD ratio, GDP-bound NRAS wild-type vs GDP-bound KRAS wild-type, SPR
[2] = target: GDP-bound HRAS wild-type protein (Homo sapiens, UniProt P01112); experiment: Binding to HRAS by surface plasmon resonance (SPR), Single Cycle Kinetics; conditions: KD ratio, GDP-bound HRAS wild-type vs GDP-bound KRAS wild-type, SPR
GDP-bound HRAS wild-type protein, sequence (P01112 whole entry): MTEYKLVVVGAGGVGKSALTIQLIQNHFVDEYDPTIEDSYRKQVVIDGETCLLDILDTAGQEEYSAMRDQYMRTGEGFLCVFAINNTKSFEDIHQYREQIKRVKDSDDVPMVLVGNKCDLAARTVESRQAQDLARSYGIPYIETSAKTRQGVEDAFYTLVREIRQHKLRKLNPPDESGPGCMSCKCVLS

GDP-bound NRAS wild-type protein, sequence (P01111 whole entry): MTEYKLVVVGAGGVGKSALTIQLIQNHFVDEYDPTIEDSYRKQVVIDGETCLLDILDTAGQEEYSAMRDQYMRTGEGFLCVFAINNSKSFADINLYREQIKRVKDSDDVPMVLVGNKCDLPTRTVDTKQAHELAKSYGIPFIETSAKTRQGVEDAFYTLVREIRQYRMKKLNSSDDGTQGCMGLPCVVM

Row | SMILES | NRAS/KRAS (ratio of KD value for NRAS to KD value for KRAS) [1] | HRAS/KRAS (ratio of KD value for HRAS to KD value for KRAS) [2]
1 | CCC[C@H]1C(=O)N[C@@H]([C@@H](C)CC)C(=O)N(C)CC(=O)N(C)[C@H]2C/C=C\CCN(C2=O)[C@@H](Cc2ccc(C)cc2)C(=O)N(C)CC(=O)N[C@@H](CCc2cc(F)c(C(F)(F)F)c(F)c2)C(=O)N2C[C@H](C)C[C@H]2C(=O)NC2(CCC2)C(=O)N(C)[C@@H](C2CCCC2)C(=O)N(C)[C@H](C(=O)N(C)CC)CC(=O)N1C [PP1862] | A (a compound having 10 or more and less than 20 is denoted as A) | A (a compound having 10 or more and less than 20 is denoted as A)
2 | CC[C@H](C)[C@@H]1NC(=O)[C@H](CC2CC2)N(C)C(=O)C[C@@H](C(=O)N(C)C)N(C)C(=O)[C@H](C2CCCC2)N(C)C(=O)C2(CCC2)NC(=O)[C@@H]2C[C@@H](C)CN2C(=O)[C@H](CCc2ccc(C(F)(F)F)c(OC)c2)NC(=O)CN(C)C(=O)[C@H](Cc2ccc(C)cc2)N2CC/C=C\C[C@@H](C2=O)N(C)C(=O)CN(C)C1=O [PP1863] | A (a compound having 10 or more and less than 20 is denoted as A) | A (a compound having 10 or more and less than 20 is denoted as A)
3 | CC[C@H](C)[C@@H]1NC(=O)[C@H](CC(C)C)N(C)C(=O)C[C@@H](C(=O)N(C)C)N(C)C(=O)[C@H](C2CCCC2)N(C)C(=O)C2(CCC2)NC(=O)[C@@H]2C[C@H](C)CN2C(=O)[C@H](CCc2cc(F)c(C(F)(F)F)c(F)c2)NC(=O)CN(C)C(=O)[C@H](Cc2ccc(C)cc2)N2CC/C=C\C[C@@H](C2=O)N(C)C(=O)CN(C)C1=O [PP1864] | A (a compound having 10 or more and less than 20 is denoted as A) | B (a compound having 3 or more and less than 10 is denoted as B)
4 | CC[C@H](C)[C@@H]1NC(=O)[C@H](CC(C)C)N(C)C(=O)C[C@@H](C(=O)N(C)C)N(C)C(=O)[C@H](C2CCCC2)N(C)C(=O)C2(CCC2)NC(=O)[C@@H]2C[C@H](C)CN2C(=O)[C@H](CCc2ccc(C(F)(F)F)c(OC)c2)NC(=O)CN(C)C(=O)[C@H](Cc2ccc(C)cc2)N2CC/C=C\C[C@@H](C2=O)N(C)C(=O)CN(C)C1=O [PP1865] | A (a compound having 10 or more and less than 20 is denoted as A) | B (a compound having 3 or more and less than 10 is denoted as B)
5 | CC[C@H](C)[C@@H]1NC(=O)[C@H](CC(C)C)N(C)C(=O)C[C@@H](C(=O)N(C)C)N(C)C(=O)[C@H](C2CCCC2)N(C)C(=O)C2(CCC2)NC(=O)[C@@H]2C[C@@H](C)CN2C(=O)[C@H](CCc2cc(F)c(C(F)(F)F)c(F)c2)NC(=O)CN(C)C(=O)[C@H](Cc2ccc(C)cc2)N2CC/C=C\C[C@@H](C2=O)N(C)C(=O)CN(C)C1=O [PP1866] | A (a compound having 10 or more and less than 20 is denoted as A) | B (a compound having 3 or more and less than 10 is denoted as B)
6 | CC[C@H](C)[C@@H]1NC(=O)[C@H](CC(C)C)N(C)C(=O)C[C@@H](C(=O)N(C)C)N(C)C(=O)[C@H](C2CCCC2)N(C)C(=O)C2(CCC2)NC(=O)[C@@H]2C[C@@H](C)CN2C(=O)[C@H](CCc2ccc(C(F)(F)F)c(OC)c2)NC(=O)CN(C)C(=O)[C@H](Cc2ccc(C)cc2)N2CC/C=C\C[C@@H](C2=O)N(C)C(=O)CN(C)C1=O [PP1867] | A (a compound having 10 or more and less than 20 is denoted as A) | B (a compound having 3 or more and less than 10 is denoted as B)
7 | CCO[C@@H]1C[C@H]2C(=O)NC3(CCC3)C(=O)N(C)[C@@H](C3CCCC3)C(=O)N(C)[C@H](C(=O)N(C)CC)CC(=O)N(C)[C@@H](CC)C(=O)N[C@@H]([C@@H](C)CC)C(=O)N(C)CC(=O)N(C)[C@H]3C/C=C\CCN(C3=O)[C@@H](Cc3ccc(C)cc3)C(=O)N(C)CC(=O)N[C@@H](CCc3ccc(C(F)(F)F)c(OC)c3)C(=O)N2C1 [PP1869] | A (a compound having 10 or more and less than 20 is denoted as A) | A (a compound having 10 or more and less than 20 is denoted as A)
8 | CC[C@H](C)[C@@H]1NC(=O)[C@H](CC)N(C)C(=O)C[C@@H](C(=O)N(C)CC)N(C)C(=O)[C@H](C2CCCC2)N(C)C(=O)C2(CC(C)(C)C2)NC(=O)[C@@H]2C[C@@H](C)CN2C(=O)[C@H](CCc2ccc(C(F)(F)F)c(OC)c2)NC(=O)CN(C)C(=O)[C@H](Cc2ccc(C)cc2)N2CC/C=C\C[C@@H](C2=O)N(C)C(=O)CN(C)C1=O [PP1870] | A (a compound having 10 or more and less than 20 is denoted as A) | A (a compound having 10 or more and less than 20 is denoted as A)
9 | CCC[C@H]1C(=O)N[C@@H]([C@@H](C)CC)C(=O)N(C)CC(=O)N(C)[C@H]2C/C=C\CCN(C2=O)[C@@H](Cc2ccc(C)cc2)C(=O)N(C)CC(=O)N[C@@H](CCc2ccc(C(F)(F)F)c(OC)c2)C(=O)N2C[C@H](OCC)C[C@H]2C(=O)NC2(CCC2)C(=O)N(C)[C@@H](C2CCCC2)C(=O)N(C)[C@H](C(=O)N(C)C)CC(=O)N1C [PP1871] | A (a compound having 10 or more and less than 20 is denoted as A) | A (a compound having 10 or more and less than 20 is denoted as A)
10 | CCO[C@@H]1C[C@H]2C(=O)NC3(CC(C)(C)C3)C(=O)N(C)[C@@H](C3CCCC3)C(=O)N(C)[C@H](C(=O)N(C)CC)CC(=O)N(C)[C@@H](CC)C(=O)N[C@@H]([C@@H](C)CC)C(=O)N(C)CC(=O)N(C)[C@H]3C/C=C\CCN(C3=O)[C@@H](Cc3ccc(C)cc3)C(=O)N(C)CC(=O)N[C@@H](CCc3ccc(C(F)(F)F)c(OC)c3)C(=O)N2C1 [PP1872] | A (a compound having 10 or more and less than 20 is denoted as A) | A (a compound having 10 or more and less than 20 is denoted as A)
11 | CCO[C@@H]1C[C@H]2C(=O)NC3(CC(C)(C)C3)C(=O)N(C)[C@@H](C3CCCC3)C(=O)N(C)[C@H](C(=O)N(C)C)CC(=O)N(C)[C@@H](CC)C(=O)N[C@@H]([C@@H](C)CC)C(=O)N(C)CC(=O)N(C)[C@H]3C/C=C\CCN(C3=O)[C@@H](Cc3ccc(C)cc3)C(=O)N(C)CC(=O)N[C@@H](CCc3ccc(C(F)(F)F)c(OC)c3)C(=O)N2C1 [PP1873] | A (a compound having 10 or more and less than 20 is denoted as A) | B (a compound having 3 or more and less than 10 is denoted as B)
12 | CC[C@H](C)[C@@H]1NC(=O)[C@H](CC)N(C)C(=O)C[C@@H](C(=O)N(C)CC)N(C)C(=O)[C@H](C2CCCC2)N(C)C(=O)C2(CC(C)(C)C2)NC(=O)[C@@H]2C[C@H](C)CN2C(=O)[C@H](CCc2ccc(C(F)(F)F)c(Cl)c2)NC(=O)CN(C)C(=O)[C@H](Cc2ccc(C)cc2)N2CC/C=C\C[C@@H](C2=O)N(C)C(=O)CN(C)C1=O [PP1874] | A (a compound having 10 or more and less than 20 is denoted as A) | A (a compound having 10 or more and less than 20 is denoted as A)
